Source: patent publication US20220104481A1, “CRYOPRESERVATION OF STEM CELLS” (TiGenix, S.A.U., priority 2019, published 2022)
Entries after “also recorded” stand apart in the source; their conditions may differ.

Tests used:
Format in all cases: cell-based, human
ASCs [1] = experiment: Post-thaw treatment with NAC in plating medium: cell growth after thawing
Protocol: A 600 mM stock of NAC (SIGMA) was prepared in Milli-Q water (Millipore). This stock was used for pre-treatment and post-treatment by adding directly 50 μL stock solution per well into 5 mL of medium, making a final concentration of 6 mM. For 2 mM, only 16.7 μL were added per well, and in the case of 12 mM, 100 μL of stock were added. DMSO was used as the vehicle for sc79 and LY294. The effect of post-thaw treatment with different concentrations of NAC (post-thaw NAC treatment) on cell growth was also studied. ASCs were frozen (without NAC pretreatment), thawed as discussed above, and then treated with three different NAC concentrations (2, 6 and 12 mM) in complete DMEM prior to plating, and the cell numbers at day 4, 11 and 14 were analysed.

[2] = tested on: mature dendritic cells (mDC); experiment: Phagocytosis of Staphylococcus aureus particles by mDC co-cultured with ASCs; details: NAC-pretreated ASCs, non-contact co-culture (FIG. 12)
Protocol: After differentiation in monoculture or co-culture in vitro (the differentiation conditions, including the cytokines used, concentrations and times of differentiation, are provided in Example 7), macrophages and mDC were harvested using 0.05% Trypsin-EDTA for 10 minutes at 37° C. The phagocytic potential of polarized macrophages or mDC was assessed using pHRodo Red-conjugated S. aureus particles (Life Technologies #A10010) following manufacturer's instructions. Briefly, 50,000 mDC were transferred to a 96-well U bottom wells (Corning #3799) and the cells were rested for 60 minutes in RPMIc. Lyophilized pHRodo conjugated particles were reconstituted in 1 mL of RPMIc per vial prior to use, and particles were sonicated for 5 minutes at 20% amplitude. Then, 50 μL of pHRodo […] were added per well and the cells were incubated for 60 minutes in normoxia at 37° C. Afterwards, phagocytosis was stopped on ice and cells were washed and stained with 5 μL 7-aminoactinomycin D (7AAD) prior to FACS analysis in Fortessa cytometer (BD). Negative controls for phagocytosis were cells without pHRodo reagent. Results were analysed in FlowJo software. The intensity of the fluorescence in the PE channel is proportional to the amount of bacterial particles phagocytosed per cell.

ASCs [3] = experiment: ASC identity assay by flow cytometry (CD29, CD73, CD90, CD105); details: 6 mM NAC pretreatment; two weeks in culture post-thawing; donor A (FIG. 7)
[4] = tested on: CD14 and CD1a on mature dendritic cells; experiment: Surface expression of CD14 and CD1a by mDC co-cultured with ASCs (flow cytometry); details: NAC-pretreated ASCs, donors A and B (FIG. 15)
Protocol: After differentiation in monoculture or co-culture in vitro (the differentiation conditions, including the cytokines used, concentrations and times of differentiation, are provided in Example 7), macrophages and mDC were harvested using 0.05% trypsin-EDTA for 10 minutes at 37° C., after supernatants were collected and frozen for future cytokine and/or HPLC analysis. After mDC were counted, they were distributed into 96-well V bottom plates for staining (Nunc #249570). Cells were incubated in Blue MACS buffer with 1% human serum for 15 minutes on ice, to block Fcγ receptor-mediated nonspecific antibody binding. Subsequently, cells were stained for 20 minutes on ice with the following antibody mixes (staining in 50 μL of 1:10 antibody dilution; except for CD64, which was 1:20 dilution): Cell viability was assessed by addition of 5 μL of 7AAD per well and staining for 10 minutes on ice, and samples were acquired in a BD Fortessa cytometer. Results were analysed in FSC Express software. The effect of NAC pretreatment (according to Example 2) on thawed ASC mediated effects on the surface expression of CD14 and CD1a on mature dendritic cells was also measured by flow cytometry. mDC are CD14-CD1a+. CD1a is the antigen-presenting molecule, and mediates the presentation of antigens by mDC to other cells of the immune system to activate their response. […]

ASCs [5] = experiment: ASC proliferation assay: viable cell density (trypan blue count) after thaw of pretreated ASCs; details: for number of viable cells: ASCs pretreated with 6 mM NAC before freezing
Protocol: ASCs from donor A were thawed by warming the vials in a 37° C. bath and diluting the freezing medium containing DMSO with fresh complete DMEM (DMEM/F-12 media—GlutaMAX™-I, Gibco, supplemented with 100 μg/mL penicillin/streptomycin and 10% FBS). Cells were centrifuged at 450 g for 6 minutes at room temperature to eliminate leftover DMSO and plated in T-175 flasks at 20.000 cells/cm^2 in complete DMEM. 24 hours post-thaw, the cells were treated with the suitable concentrations of the compounds indicated in the table below for 24 hours: Following the pretreatment step, the medium was removed, the cells were washed with PBS and trypsinized using trypsin-EDTA 0.25% (ThermoFisher) for 8 minutes at 37° C. After trypsin inactivation with complete DMEM, cells were harvested and centrifuged prior to resuspension in freezing medium (FBS with 10% DMSO), and frozen into 500,000 or 1 million cells per vial and stored in liquid nitrogen for further use. Specifically, the cells were frozen at −80° C. for 24 hours in a Cool Cell® device (BioCision) and then transferred to a liquid nitrogen storage container. All experiments were performed in incubators and 37° C., 5% CO2. ASCs pretreated with NAC according to the methods described in Example 2 from donor A or donor B final drug substance (FDS) were thawed by warming the vials in a 37° C. bath and quickly diluting the freezing medium containing DMSO (FBS with 10% DMSO) with fresh complete DMEM. Cells were centrifuged at 450 g for 6 minutes at room temperature to eliminate leftover DMSO, and plated in P6-well plates (Falcon #353046) in triplicates at […] in 5 mL of complete DMEM per well. Cells were washed with 1×PBS and trypsinized using trypsin-EDTA 0.25% (ThermoFisher) for 8 minutes at 37° C. After trypsin inactivation using complete DMEM, cells were harvested, centrifuged and resuspended in fresh DMEM; triplicate wells were unified as a single sample for counting purposes. Cells were counted in triplicates at 24 hours, 96 hours and 7 days after plating using an Invitrogen Countess Automated Cell Counter (Invitrogen) and adding trypan blue as a viability stain (FIG. 4A). The calculation of cell density was done using the count of viable ASC (negative for trypan blue) per surface unit (cm^2).

CC(=O)N[C@@H](CS)C(=O)O [NAC, N-Acetylcysteine]
number of viable cells (ASCs [1]; post-thaw treatment with 2 mM NAC, 7 days of culture (FIG. 6)): ~6,300 cells/cm^2
number of viable cells (ASCs [1]; post-thaw treatment with 2 mM NAC, 11 days of culture (FIG. 6)): ~18,700 cells/cm^2
number of viable cells (ASCs [1]; post-thaw treatment with 2 mM NAC, 14 days of culture (FIG. 6)): ~18,300 cells/cm^2
growth rate (ASCs [1]; post-thaw treatment with 2 mM NAC, between days 7 and 11 (FIG. 6)): approximately 3100 cells/cm^2/day
cell number versus non-treated (ASCs [1]; post-thaw treatment with 2 mM NAC, sustained up to 2 weeks in culture (FIG. 6)): increase in cell number
cell density versus non-treated (ASCs [1]; post-thaw treatment with 6 mM NAC (FIG. 6)): lower cell densities
cell density versus non-treated (ASCs [1]; post-thaw treatment with 12 mM NAC (FIG. 6)): lower cell densities
ability of ASCs to increase phagocytosis potential of mDCs [2]: did not alter their ability to increase the phagocytosis potential of mDCs
expression of ASC identity markers CD29, CD73, CD90 and CD105 (ASCs [3]): does not alter the expression of ASC identity markers
ASC-induced formation of CD14+CD1a- regulatory mDC population [4]: does not alter the ability of thawed ASCs to induce the formation of this mDC regulatory population; also recorded: did not modify this effect
number of cells counted versus non-treated control (ASCs [5]; 6 mM NAC pretreatment, 24 hours and 4 days post-thaw): increased the number of cells counted at 24 hours and 4 days
cell number by cell density versus non-treated (ASCs [5]; 6 mM NAC pretreatment, 24 hours post-seeding after thaw (FIG. 3)): increased cell numbers
cell numbers versus non-treated, two donors (ASCs [5]; 6 mM NAC pretreatment, donor A and donor B, from 24 hours post-seeding, maintained for a week (FIG. 5)): increase in cell numbers
post-thaw recovery (viable adhered cell number over seeding density) (ASCs [5]; ASCs pretreated with 6 mM NAC (FIG. 4A), non-treated cells not recovered at 1 day): recovered after 1 day of post-thaw culture
number of viable cells (ASCs [5]; 1 day of culture post-thaw (FIG. 4A)): ~5,000 cells/cm^2
number of viable cells (ASCs [5]; 4 days of culture post-thaw (FIG. 4A)): ~12,500 cells/cm^2
improvement of growth rate relative to non-treated cells (ASCs [5]; ASCs pretreated with 6 mM NAC, between days 1 and 4 of post-thaw culture): about 1.25 fold
growth rate (ASCs [5]; ASCs pretreated with 6 mM NAC, between days 1 and 4 of post-thaw culture (FIG. 4A)): approximately 2500 cells/cm^2/day
